Experimental data taken from paper PMC10674476, “Development of a Novel In Vitro Model to Study Lymphatic Uptake of Drugs via Artificial Chylomicrons” (Pharmaceutics, 2023).
Where two headings read alike, the source gives them in different places. Marks after values point to notes of the source that are not given here.

Assays:
[1] = In vitro lymphatic uptake model (Franz cell, Intralipid receiver, octanol-impregnated PVDF membrane); details: 37 °C, 0–4 h, rank among the four tested drugs
Protocol: The Franz Cell receiver compartment was filled with 12 mL of either Intralipid® or Intralipid® mixed with a potential inhibitor or enhancer and maintained at 37.0 ± 0.5 °C with magnetic stirring at 600 rpm, as shown in Figure 2. A synthetic 0.22 µm Polyvinylidene Fluoride (PVDF) membrane impregnated with octanol was placed between compartments. […] Two mL solutions of the model drugs were added to the donor compartment with the receiver compartment containing either Intralipid® or Intralipid® mixed with an enhancer or an inhibitor. At different time intervals (0–4 h), 0.2 mL samples were withdrawn, extracted, and analyzed for drug content using HPLC with a C18 column (150 mm × 4.6 mm i.d., 5 µm).
Therefore, this in vitro model was developed to replicate this in vivo process. Since certain lipophilic drugs are taken up from the intestinal lumen into enterocytes and subsequently enclosed within chylomicrons, the developed model was designed to include a donor compartment, resembling the intestinal lumen, where the drug solution is placed. Additionally, there was a receiver compartment that contains an artificial chylomicron medium, simulating the environment within enterocytes. These two compartments were separated by an octanol-immersed membrane, which served as a representation of the lipophilic cell membrane found in enterocytes (Figure 2).

[2] = cited from earlier work; for Density: ref ChemBK **, ChemSpider ***, # drugfuture.com, ## chemsrc.com; for PSA (polar surface area): ref DrugBank, in Å2 (unit assumed)
[3] = design: method as in PMID 32785853, PMID 29109461; details: cited from earlier work
[4] = design: method as in PMID 32785853; details: Sprague-Dawley rats, cited from earlier work
[5] = oral; cited from earlier work
[6] = long-chain triglyceride formulation; cited from earlier work
[7] = lipidic vehicles, lymph-cannulated rats; cited from earlier work
[8] = design: method as in PMID 23200408; details: intraduodenal, thoracic duct-cannulated rats; cited from earlier work
[9] = design: method as in PMID 19916501; details: 30 mg/kg intraduodenal, mesenteric-cannulated rat; cited from earlier work

Structure (SMILES)	lymphatic uptake (release into the receiver compartment) [1]	Density [2]	PSA (polar surface area) [2]	HBA (hydrogen-binding acceptors) ([2]; ref PubChem (* DrugBank))	HBD (hydrogen binding donors) ([2]; ref PubChem (* DrugBank))	LogP ([2]; ref PubChem (* DrugBank))	increase in plasma concentration with sesame oil [3]	increase in systemic exposure with sesame oil [3]	increase in systemic exposure with lipids versus lipid-free formulations [4]	increase in systemic exposure with lipids versus lipid-free formulations ([4]; listed as CBD)	systemic exposure compared to testosterone administration [5]	pKa ([2]; ref PubChem (* DrugBank))	total bioavailability [6]	total systemic exposure [7]	transport through the lymphatic system with soybean oil [8]	Cmax in the lymph relative to plasma [9]
C=C(C)[C@@H]1CCC(C)=C[C@H]1c1c(O)cc(CCCCC)cc1O [Cannabidiol, cannabidiol]	moderate efficiency	1.04 ^# g/cm^3	40.46 *	2 *	2 *	6.3 *	250 fold	2.8 fold	factor of three	three-fold increase						
CCCCCCCCCCC(=O)O[C@H]1CC[C@H]2[C@@H]3CCC4=CC(=O)CC[C@]4(C)[C@H]3CC[C@]12C [testosterone undecanoate]											higher systemic exposure					
CO[C@H]1/C=C/O[C@@]2(C)Oc3c(C)c(O)c4c(O)c(c(/C=N/N5CCN(C)CC5)c(O)c4c3C2=O)NC(=O)/C(C)=C\C=C\[C@H](C)[C@H](O)[C@@H](C)[C@@H](O)[C@@H](C)[C@H](OC(C)=O)[C@@H]1C [Rifampicin, rifampicin]	least available	1.178 ** g/cm^3	220.15 *	15	6	4.9										
CCCCN(CCCC)CCC(O)c1cc2c(Cl)cc(Cl)cc2c2cc(C(F)(F)F)ccc12 (stereo not drawn) [Halofantrine]		1.2 *** g/cm^3	23.5 *	5	1	8.9						14.47	19.1%	22.7 % of the administered dose		
O=c1c(O)c(-c2ccc(O)c(O)c2)oc2cc(O)cc(O)c12 [Quercetin, quercetin]	moderate efficiency	1.8 ^## g/cm^3	127.45 *	7	5	1.48									notably improved	approximately five times higher
